From ChEMBL document CHEMBL4732046, “A red-light-activated sulfonamide porphycene for highly efficient photodynamic therapy against hypoxic tumor” (Eur J Med Chem, 2021)
Active and inactive are the calls of the source.

Legend:
B16 [1] = experiment: Antitumor activity against mouse B16 cells xenografted in C57BL/6 mouse assessed as tumor growth inhibition by measuring nuclear pyknosis treated at high dose intratumorally once every 2 days for 2 weeks followed every dosing irradiated with 640 +/- 15 nm red LED for 4 hrs measured after 14 days treatment; format: functional, cell-based; details: time 14.0 day
B16 [2] = experiment: Induction of morphological changes in mouse B16 cells assessed as chromatin condensation at 200 to 400 nM incubated for 24 hrs by Hoechst 33258 staining based assay; format: functional, cell-based; details: dose 200-400 nM
[3] = Toxicity in C57BL/6 mouse assessed as effect on blood urea nitrogen level measured upto 14 days; details: in vivo, 336 h, time <=14 day
[4] = Toxicity in C57BL/6 mouse assessed as effect on lactate dehydrogenase level measured upto 14 days; details: in vivo, 336 h, time <=14 day
A-375 [5] = experiment: Induction of apoptosis in human A-375 cells assessed as increase in cleaved caspase 3 level at 100 to 300 nM irradiated with 640 +/- 15 nm red LED for 1 hrs measured after 24 hrs by Western blot analysis; format: functional, cell-based; details: dose 100-300 nM
B16 [6] = experiment: Antiproliferative activity against mouse B16 cells assessed as inhibition of cell proliferation irradiated with 640 +/- 15 nm red LED for 4 hrs in presence of 30 uM D-mannitol measured after 24 hrs under hypoxic condition by MTT assay; format: functional, cell-based
B16 [7] = experiment: Antiproliferative activity against mouse B16 cells assessed as inhibition of cell proliferation irradiated with 640 +/- 15 nm red LED for 4 hrs in presence of 30 uM D-mannitol measured after 24 hrs by MTT assay; format: functional, cell-based
[8] = Toxicity in C57BL/6 mouse assessed as effect on aspartate aminotransferase level measured after 2 days; details: in vivo, 48 h, time 2 day
[9] = Toxicity in C57BL/6 mouse model assessed as effect on lungs treated intratumorally once every 2 days for 2 weeks followed every dosing irradiated with 640 +/- 15 nm red LED for 4 hrs measured upto 28 days by H and E staining dependent light microscopy based histopathological analysis; details: in vivo, other, time <=28 day
A-375 [10] = experiment: Induction of apoptosis in human A-375 cells assessed as increase in Bax level at 100 to 300 nM irradiated with 640 +/- 15 nm red LED for 1 hrs measured after 24 hrs by Western blot analysis; format: functional, cell-based; details: dose 100-300 nM
B16 [11] = experiment: Induction of morphological changes in mouse B16 cells assessed as nuclear shrinkage at 200 to 400 nM incubated for 24 hrs by Hoechst 33258 staining based assay; format: functional, cell-based; details: dose 200-400 nM
B16 [12] = experiment: Antitumor activity against mouse B16 cells xenografted in C57BL/6J mouse assessed as tumor growth inhibition at high dose intratumorally once every 2 days for 2 weeks followed every dosing irradiated with 640 +/- 15 nm red LED for 4 hrs measured after 14 days treatment; format: functional, cell-based; details: time 14.0 day
A-375 [13] = experiment: Induction of apoptosis in human A-375 cells assessed as increase in cytochrome c level at 100 to 300 nM irradiated with 640 +/- 15 nm red LED for 1 hrs measured after 24 hrs by Western blot analysis; format: functional, cell-based; details: dose 100-300 nM
A-375 [14] = experiment: Induction of apoptosis in human A-375 cells assessed as apoptotic cells at 100 nM irradiated with 640 +/- 15 nm red LED for 1 hrs after 24 hrs by Annexin V-FITC/propidium iodide staining based flow cytometric analysis relative to control; format: functional, cell-based
[15] = Drug uptake in human A-375 cells upto 2 hrs by flow cytometric analysis; format: ADME, cell-based; details: a-375, 2 h
B16 [16] = experiment: Induction of apoptosis in mouse B16 cells assessed as apoptotic cells at 400 nM irradiated with 640 +/- 15 nm red LED for 1 hrs after 24 hrs by Annexin V-FITC/propidium iodide staining based flow cytometric analysis relative to control; format: functional, cell-based
B16 [17] = experiment: Induction of apoptosis in mouse B16 cells assessed as increase in cleaved caspase 9 level at 200 to 400 nM irradiated with 640 +/- 15 nm red LED for 1 hrs measured after 24 hrs by Western blot analysis; format: functional, cell-based; details: dose 200-400 nM
A-375 [18] = experiment: Induction of apoptosis in human A-375 cells assessed as apoptotic cells at 300 nM […] irradiated with 640 +/- 15 nm red LED for 1 hrs after 24 hrs by Annexin V-FITC/propidium iodide staining based flow cytometric analysis relative to control; format: functional, cell-based
A-375 [19] = experiment: Induction of apoptosis in human A-375 cells assessed as decrease in Bid level at 100 to 300 nM irradiated with 640 +/- 15 nm red LED for 1 hrs measured after 24 hrs by Western blot analysis; format: functional, cell-based; details: dose 100-300 nM
B16 [20] = experiment: Antiproliferative activity against mouse B16 cells assessed as inhibition of cell proliferation irradiated with 640 +/- 15 nm red LED for 4 hrs in presence of 30 uM L-histidine measured after 24 hrs by MTT assay; format: functional, cell-based
[21] = Toxicity in C57BL/6 mouse assessed as effect on alanine aminotransferase level measured after 7 days; details: in vivo, 168 h, time 7 day
[22] = Drug uptake in mouse B16 cells mitochondria incubated for 24 hrs by mito-tracker green based confocal microscopic method; format: ADME; details: b16, 24 h
A-375 [23] = experiment: Photocytotoxicity against human A-375 cells assessed as reduction in cell viability irradiated with 640 +/- 15 nm red LED for 4 hrs measured after 24 hrs under hypoxic condition by MTT assay; format: functional, cell-based; details: A-375, light or radiation study
A-375 [24] = experiment: Antiproliferative activity against human A-375 cells assessed as inhibition of cell proliferation irradiated with 640 +/- 15 nm red LED for 4 hrs in presence of 30 uM L-histidine measured after 24 hrs by MTT assay; format: functional, cell-based
[25] = Drug uptake in human A-375 cells lysosome after 24 hrs by Lyso-Tracker Red dye based confocal microscopic method; format: ADME, subcellular; details: a-375, 24 h
B16 [26] = experiment: Induction of apoptosis in mouse B16 cells assessed as decrease in Bcl2 level at 200 to 400 nM irradiated with 640 +/- 15 nm red LED for 1 hrs measured after 24 hrs by Western blot analysis; format: functional, cell-based; details: dose 200-400 nM
B16 [27] = experiment: Induction of intracellular reactive oxygen species production in mouse B16 cells irradiated with 640 +/- 15 nm red LED for 1 hrs measured after 4 hrs by DCFH-DA probe based flow cytometry; format: functional, cell-based; details: dose nM <=400, time 4.0 hrs
B16 [28] = experiment: Induction of apoptosis in mouse B16 cells assessed as increase in cleaved caspase 3 level at 200 to 400 nM irradiated with 640 +/- 15 nm red LED for 1 hrs measured after 24 hrs by Western blot analysis; format: functional, cell-based; details: dose 200-400 nM
[29] = Toxicity in C57BL/6 mouse assessed as effect on aspartate aminotransferase level measured after 7 days; details: in vivo, 168 h, time 7 day
A-375 [30] = experiment: Antiproliferative activity against human A-375 cells assessed as inhibition of cell proliferation irradiated with 640 +/- 15 nm red LED for 4 hrs in presence of 30 uM L-histidine measured after 24 hrs under hypoxic condition by MTT assay; format: functional, cell-based
HeLa [31] = experiment: Photo-therapeutic index, ratio of LD50 for photocytotoxicity against human HeLa cells assessed as reduction in cell viability irradiated with 640 +/- 15 nm red LED for 4 hrs measured after 24 hrs by MTT assay to LD50 for cytotoxicity against human HeLa cells assessed as cell viability in dark measured after 24 hrs by MTT assay; format: functional
[32] = Drug uptake in human A-375 cells mitochondria incubated for 24 hrs by mito-tracker green based confocal microscopic method; format: ADME; details: a-375, 24 h
HeLa [33] = experiment: Photocytotoxicity against human HeLa cells assessed as reduction in cell viability irradiated with 640 +/- 15 nm red LED for 4 hrs measured after 24 hrs by MTT assay; format: functional, cell-based; details: light or radiation study

CC(C)(C)C1=Cc2nc1ccc1[nH]c(cc1S(=O)(=O)NCCOCCO)c1nc(ccc3[nH]c2cc3C(C)(C)C)C(C(C)(C)C)=C1
324 nM: DC50 (A-375 [23])
>2040: Ratio (HeLa [31])
inactive: Activity (B16 [6]) | Activity (B16 [7])
active: Activity (B16 [1]) | Activity (B16 [2]) | Activity (A-375 [5]) | Activity (A-375 [10]) | Activity (B16 [11]) | Activity (B16 [12]) | Activity (A-375 [13]) | Activity (A-375 [14]) | Activity (B16 [16]) | Activity (B16 [17]) | Activity (A-375 [18]) | Activity (A-375 [19]) | Activity (B16 [20]) | Activity (A-375 [24]) | Activity (B16 [26]) | Activity (B16 [27]) Dose-dependent effect | Activity (B16 [28]) | Activity (A-375 [30])
Active: Drug uptake [15] | Drug uptake [22] | Drug uptake [25] | Drug uptake [32]
15 nM: DC50 (HeLa [33])
Toxic: Activity [8] | Activity [21] | Activity [29]
Non-Toxic: Activity [3] | Activity [4] | Activity [9]
